We go through 4 molecules from US20060193832A1, “Use of the sodium iodine symporter to effect uptake of iodine” (priority 2005, published 2006).

“Also recorded” adds a separate entry of the source.

For series [1], the target named is T1, NIS (Homo sapiens, UniProt Q92911).
T1 sequence (Q92911 1-643): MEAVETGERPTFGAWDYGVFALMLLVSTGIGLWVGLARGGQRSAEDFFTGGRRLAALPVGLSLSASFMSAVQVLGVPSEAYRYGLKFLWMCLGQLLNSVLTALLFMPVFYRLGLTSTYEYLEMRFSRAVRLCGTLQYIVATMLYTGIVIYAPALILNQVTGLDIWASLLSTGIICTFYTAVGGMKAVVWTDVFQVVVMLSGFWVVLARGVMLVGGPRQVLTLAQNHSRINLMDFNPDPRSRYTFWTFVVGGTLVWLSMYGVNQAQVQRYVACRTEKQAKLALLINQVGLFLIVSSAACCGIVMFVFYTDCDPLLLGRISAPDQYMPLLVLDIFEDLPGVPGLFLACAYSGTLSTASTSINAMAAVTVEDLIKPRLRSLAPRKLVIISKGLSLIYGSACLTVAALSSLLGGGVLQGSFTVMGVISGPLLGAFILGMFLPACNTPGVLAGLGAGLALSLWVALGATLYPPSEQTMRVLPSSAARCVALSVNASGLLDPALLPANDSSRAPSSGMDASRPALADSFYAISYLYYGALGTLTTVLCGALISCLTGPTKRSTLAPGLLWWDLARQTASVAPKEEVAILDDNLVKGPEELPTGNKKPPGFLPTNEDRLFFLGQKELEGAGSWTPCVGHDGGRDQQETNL
Briefly: Perchlorate inhibition of NIS-mediated radioiodide uptake in FaDu cells. In kind it is cell-based. More on the design: The full-length hNIS cDNA was digested from this plasmid and ligated into the pacAd5 CMV K—N pA shuttle vector; expressed in transfected cells. Conditions: 1 mM sodium perchlorate added before radioiodide, Ad-hNIS-transduced FaDu cells. How it is done: Radioiodide Uptake and Efflux. Cells (2.5×10^5) were seeded in each well of 12-well plates on day 1. Twelve hours later, 40 multiplicity of infection (MOI; the ratio of infectious viral particles to cells) of adenovirus was added to each well. Twenty-four hours later, 2 μCi of sodium [^125I] iodide (New England Nuclear, North Billerica, Mass.) was added to each well, and the plates were incubated for 1 hour at 37° C. […] Medium was then removed, and cells were washed once with PBS. Plates were then exposed overnight on a phosphor imaging screen, and signal intensity was determined with a Typhoon 9400 imager (Amersham Biosciences, Buckinghamshire, England). Signal intensity was compared with that of standards of known activity. […] To determine the rate of [^125I] iodide efflux from cells, uptake was performed as previously described.

The test system of series [2] is hNIS stable expressing FaDu transfectants. How it is done:
In Vivo Tumor Growth. […] Twenty-four hours later, cells were trypsinized, washed, and resuspended in PBS. […] After allowing 48 hours for engraftment of tumor cells, 1 mCi of [^131I] iodide was injected intraperitoneally into each mouse. Second, to assess the effects of genetically targeted radiotherapy on established tumors, 5×10^6 stably transfected NIS-expressing FaDu cells or their parental counterparts were injected subcutaneously into both flanks of athymic mice. The tumors were allowed to grow to an average tumor diameter of 5 mm and then 1 mCi of [^131I] iodide was injected intraperitoneally into each mouse. In both experiments, tumor sizes were recorded in three dimensions every 2 days. Average tumor diameters were determined by taking the cube root of tumor width×length×depth. The experiments were terminated when the average tumor diameter exceeded 10 mm. All animal studies were performed in accordance with the Public Health Service policy on Humane Care and Use of Laboratory Animals, the NIH Guide for the Care and Use of Laboratory Animals, and the Animal elfare Act (7 U.S.C. et seq.); the animal use protocol was approved by the Institutional Animal Care and Use Committee (IACUC) of the University of Iowa.

In series [3] the test system is NIS expressing human tumor xenograft of FaDu carcinoma cells. To be noted: 4.2 Gy delivered to the tumor.
Description: To begin to address this issue, the inventors have established a method to estimate dosimetry based on gamma camera imaging of ^131I uptake and retention using a pinhole collimator. […] Data collected from the pinhole collimator gamma camera imaging has enabled us to calculate doses delivered to tumor xenografts and therefore to perform comparative dosimetry between different isotopes such as ^131I and ^188ReO4—.
Series [4] deals with NIS-expressing tumor tissue. Briefly: Gamma camera imaging of 188ReO4 uptake in Ad-NIS injected tumor bearing mouse. To be noted: 2 hours after systemic administration. In kind it is in vivo. An excerpt: As discussed in detail below, the beta particle emitted from ^188Re is more energetic than that of ^131I and can travel a further distance in tissue, thus may be well suited to use in the context of larger tumors that are found in human head and neck cancer.

Series [5] deals with T1, NIS. Conditions: stably transfected cell lines; cited from earlier work.
Series [6] concerns NIS-expressing F98 gliomas. To be noted: rats bearing NIS-expressing F98 gliomas; cited from earlier work.
For series [7] the following is noted: radionuclide half-life; cited from earlier work.
Another series relates to Ad-NIS infected cells. Briefly: Iodide retention with recombinant LPO during the efflux period. Format: cell-based. Conditions: recombinant LPO present during efflux period, 2 hours of efflux. An excerpt: The inventors are also exploring other novel methods to enhance iodine retention in cells and, to this end, they have examined the effect of lactoperoxidase (LPO) on iodide organification and retention in NIS+ cell populations.

The mark [8] stands for this setting: sixty days after [131I] iodide administration.

Consider `[Na+].[O-][Cl+3]([O-])([O-])[O-]` [Perchlorate, sodium perchlorate], for which the “effect on NIS-mediated [125I] iodide accumulation” value at NIS [1] is “inhibited iodide accumulation; also recorded: inhibits NIS-mediated [^125I] iodide uptake”.

In the case of `[131I-].[Na+]` [[^131I] iodide, sodium [^131I] iodide], the “tumors with complete response (shrunk beyond the limit of detection)” value in series [2] (NIS-FaDu established tumors (5 mm), 1 mCi [131I] iodide i.p.) is recorded as “eight of eight”. The “local adverse effects of radiotherapy” value in series [2] (mice given 1 mCi [131I] iodide i.p.) was “No local adverse effects”. Besides, in series [2] (setting [8]), the tumors recurred result was “two” and the “tumors remaining in complete remission” value is on record as “six”. In addition, the “tumor outcome at the delivered dose” value in series [3] is listed as “remission of this tumor”.

Consider `[O]=[Re](=[O])(=[O])[O-]` [^188ReO4, Perrhenate], for which, in series [4], the “tissue accumulation of 188ReO4-” value is “thyroid, stomach, and NIS-expressing tumor tissue, also display high affinity”. At NIS [5], the “in vitro uptake as compared to iodide” value was “two- to three-fold higher”. Also, the “survival versus 131I treatment” value in series [6] is “increased survival”. The t1/2 in series [7] is 16.9 h.

With lactoperoxidase [LPO], the “cell-associated iodide during efflux” value with Ad-NIS infected cells is on record as “significantly longer retention times; also recorded: increased levels of cell-associated iodide”.
